Laboratory results from patent publication US20190090458A1, “DEVICE FOR OBTAINING AGE/SIZE-MATCHED NEMATODES AND METHODS OF USE” (University of Alaska, Fairbanks, priority 2017, published 2019).

Assays:
[1] = system: C. elegans; test: Gentle touch response (anterior and posterior); format: in vivo; details: 100 μM FUDR in NGM; any day of testing (days 2, 4, 6, 8); p>0.4
Method: (§1) The three groups tested were separated by: 1) individual picking, wherein nematodes were selected and transferred manually using a platinum loop; 2) the chemical treatment fluorodeoxyuridine (FUDR), wherein 100 mg/mL FUDR was added to the NGM media to a final concentration of 100 μM to prevent any progeny production, and then the nematodes were transferred every other day to a fresh NGM plate to avoid food depletion; and, 3) the device of Example 1.
Response to mechanical stimulus is a physiological marker to assess aging or general health; thus, the impact of different transfer methods on both the anterior and the posterior gentle touch responses were tested. Responses to a gentle touch were compared between the three treatment groups, wherein the assay was performed based on the methods described by Calixto et al. Enhanced neuronal RNAi in C. elegans using SID-1. Nature Methods. 7 (7), 554-559 (2010). The anterior and posterior touch response was recorded by gently stroking an eyelash pick perpendicularly across the tail or the head (5× each, alternating head and tail) of the animals. Any movement in the opposite direction of the stroke was scored as 1 point on a scale of 0 to 5 for both the anterior and the posterior response. A statistical analysis with a one-way ANOVA with α=0.05 and Bonferroni post-tests with α=0.05 was conducted using the recorded scored.

[2] = system: C. elegans; test: Motility assay (motility class scoring); format: in vivo; details: 100 μM FUDR in NGM; days 2, 4, 6 and 8 of adulthood; p>0.05
Method: as §1
In C. elegans the normal sinusoidal movement (i.e., motility) declines with age and is a marker of overall health. To determine if the present device influenced motility, motility scores were compared for pick, FUDR, and present filter membrane device treatment groups on days 2, 4, 6, and 8 of adulthood. The mobility assay was performed as disclosed by Hendon et al. Stochastic and genetic factors influence tissue-specific decline in ageing C. elegans. Nature. 419 (6909), 808-814 (2002). The nematodes were assigned a motility score and assigned to a class (A, B, or C). Class A individuals move spontaneously in a normal, sinusoidal pattern. Class B individuals move in markedly non-sinusoidal movements and may require prodding to encourage movement. Class C individuals move their head and/or tail in response to prodding but are unable to move across the agar.

[3] = system: C. elegans; test: Pharyngeal pump rate; format: in vivo; details: 100 μM FUDR in NGM; days 6 and 8 of adulthood; p<0.001
Method: as §1
The ability of C. elegans' pharyngeal muscles to pump declines with age and is another biomarker of healthspan. To determine if the present filter membrane device influenced the nematodes' pharyngeal pump rate, the three treatment groups were compared on days 2, 4, 6, and 8 of adulthood (n=8 to 10 per group). The grinder movement of the nematode's terminal pharyngeal bulb was visually counted under a stereomicroscope at a 600× final magnification for 1 minute, wherein a statistical analysis with a one-way ANOVA with α=0.05 and Bonferroni post-tests with α=0.05 was performed.

[4] = system: sod-3::gfp; test: sod-3::gfp fluorescent reporter stress response assay; format: in vivo, C. elegans; details: 100 μM paraquat, positive control; strain CF1553; p<0.05
Method: Three commonly used fluorescent reporter assays were performed to detect potential markers of stress: a DAF-16::GFP translocation into the nuclei of cells in a strain [TJ356-zIs356 (pDAF-16::DAF-16-GFP;rol-6)]; an hsp-16.2 expression [TJ375-gpls 1 (hsp-16.2p::GFP)]; and a sod-3 expression [CF1553-muIs84([pAD76]sod-3p::GFP+rol-6[su1006])]. Henderson, S. T., Johnson, T. E. daf-16 integrates developmental and environmental inputs to mediate aging in the nematode Caenorhabditis elegans. Current Biology. 11 (24), 1975-1980 (2001); Rea, S. L., Wu, D., Cypser, J. R., Vaupel, J. W., Johnson, T. E. A stress-sensitive reporter predicts longevity in isogenic populations of Caenorhabditis elegans. Nature Genetics. 37 (8), 894-898 (2005); and, Libina, N., Berman, J. R., Kenyon, C. […]
At day 3 of adulthood, the nematodes were harvested with an eyelash pick and mounted to a coverslip with 1 μL of a 36% poloxamer 407 surfactant solution to immobilize the nematodes. […] Differences in the fluorescent localization between the three groups was recorded and results compared using an ordinal logistics statistical model in statistical analysis software (DAF-16::GFP assay) and for the hsp-16.2 and the sod-3 expression assays, a one-way ANOVA with α=0.05 and Tukey's post hoc tests with α=0.05 was used to compare the total fluorescence of the head region. […]

| Compound | anterior and posterior gentle touch response compared with pick and device groups [1] | motility class distribution compared with pick and device groups [2] | pharyngeal pump rate, FUDR versus picking group [3] | SOD-3 expression (sod-3::gfp fluorescence of head region) versus pick and device groups [4] |
| --- | --- | --- | --- | --- |
| O=c1[nH]c(=O)n([C@H]2C[C@H](O)[C@@H](CO)O2)cc1F [FUDR, 5-fluorodeoxyuridine] | no statistically significant difference | no difference | significant difference | – |
| C[n+]1ccc(-c2cc[n+](C)cc2)cc1 [paraquat] | – | – | – | high expression of sod-3::gfp |
